According to patent US20100099561A1, “HETEROBICYCLIC ALKYLTHIO-BRIDGED ISOXAZOLINES” (E.I. DU PONT DE NEMOURS AND COMPANY, priority 2008, published 2010):

Tests used:
Assay type in all cases: in vivo
[1] = tested on: barnyardgrass (Echinochloa crus-galli); experiment: Test B flooded paddy test, barnyardgrass; conditions: Flood
Summary of the method: (§1)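 Step one: raise plants to 2 leaves. Step two: flood pots 3 cm over the soil and apply compound into the water, keeping this depth. Step three: after 13–15 greenhouse days, score visually versus controls, 0–100, where 100 means complete control.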

[2] = tested on: wheat (Triticum aestivum); experiment: Test A preemergence, wheat; conditions: 0 to 100 scale (0 no effect, 100 complete control)
Summary of the method: (§2)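 Sow seeds in loam–sand blend; spray soil directly (pre) and treat emerged one- to two-leaf plants 2–10 cm tall (post) with compound in surfactant-containing non-phytotoxic solvent. Keep in greenhouse about ten days. Score injury visually against controls from 0 to 100.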

[3] = tested on: barnyardgrass (Echinochloa crus-galli); experiment: Test A preemergence, barnyardgrass; conditions: 0 to 100 scale (0 no effect, 100 complete control)
Summary of the method: as §2

[4] = tested on: ducksalad (Heteranthera limosa); experiment: Test B flooded paddy test, ducksalad; conditions: Flood, scale 0 to 100
Summary of the method: as §1

corn (Zea mays) [5] = experiment: Test A postemergence, corn; conditions: 0 to 100 scale (0 no effect, 100 complete control)
Summary of the method: as §2

[6] = tested on: morningglory (Ipomoea spp.); experiment: Test A postemergence, morningglory; conditions: 0 to 100 scale (0 no effect, 100 complete control)
Summary of the method: as §2

[7] = tested on: umbrella sedge (Cyperus difformis); experiment: Test B flooded paddy test, umbrella sedge; conditions: Flood, scale 0 to 100
Summary of the method: as §1

[8] = tested on: morningglory (Ipomoea spp.); experiment: Test A preemergence, morningglory; conditions: 0 to 100 scale (0 no effect, 100 complete control)
Summary of the method: as §2

[9] = tested on: velvetleaf (Abutilon theophrasti); experiment: Test A postemergence, velvetleaf; conditions: 0 to 100 scale (0 no effect, 100 complete control)
Summary of the method: as §2

[10] = tested on: pigweed (Amaranthus retroflexus); experiment: Test A preemergence, pigweed; conditions: 0 to 100 scale (0 no effect, 100 complete control)
Summary of the method: as §2

[11] = tested on: large crabgrass (Digitaria sanguinalis); experiment: Test A preemergence, large crabgrass; conditions: 0 to 100 scale (0 no effect, 100 complete control)
Summary of the method: as §2

[12] = tested on: wheat (Triticum aestivum); experiment: Test A postemergence, wheat; conditions: 0 to 100 scale (0 no effect, 100 complete control)
Summary of the method: as §2

corn (Zea mays) [13] = experiment: Test A preemergence, corn; conditions: 0 to 100 scale (0 no effect, 100 complete control)
Summary of the method: as §2

rice (Oryza sativa) = experiment: Test B flooded paddy test, rice; conditions: Flood, scale 0 to 100
Summary of the method: as §1

[14] = tested on: large crabgrass (Digitaria sanguinalis); experiment: Test A postemergence, large crabgrass; conditions: 0 to 100 scale (0 no effect, 100 complete control)
Summary of the method: as §2

[15] = tested on: giant foxtail (Setaria faberi); experiment: Test A preemergence, giant foxtail; conditions: 0 to 100 scale (0 no effect, 100 complete control)
Summary of the method: as §2

[16] = tested on: pigweed (Amaranthus retroflexus); experiment: Test A postemergence, pigweed; conditions: 0 to 100 scale (0 no effect, 100 complete control)
Summary of the method: as §2

[17] = tested on: velvetleaf (Abutilon theophrasti); experiment: Test A preemergence, velvetleaf; conditions: 0 to 100 scale (0 no effect, 100 complete control)
Summary of the method: as §2

[18] = tested on: giant foxtail (Setaria faberi); experiment: Test A postemergence, giant foxtail; conditions: 0 to 100 scale (0 no effect, 100 complete control)
Summary of the method: as §2

[19] = tested on: barnyardgrass (Echinochloa crus-galli); experiment: Test A postemergence, barnyardgrass; conditions: 0 to 100 scale (0 no effect, 100 complete control)
Summary of the method: as §2

Compound | Plant response rating, Wheat ([2]; 125 g ai/ha) | Plant response rating, Wheat ([2]; 500 g ai/ha) | Plant response rating, Barnyardgrass ([3]; 125 g ai/ha) | Plant response rating, Barnyardgrass ([3]; 500 g ai/ha) | Plant response rating, Corn (corn (Zea mays) [5]; 125 g ai/ha) | Plant response rating, Corn (corn (Zea mays) [5]; 500 g ai/ha) | Plant response rating, Morningglory ([6]; 125 g ai/ha) | Plant response rating, Morningglory ([6]; 500 g ai/ha) | Plant response rating, Morningglory ([8]; 125 g ai/ha) | Plant response rating, Morningglory ([8]; 500 g ai/ha) | Plant response rating, Velvetleaf ([9]; 125 g ai/ha) | Plant response rating, Velvetleaf ([9]; 500 g ai/ha) | Plant response rating, Pigweed ([10]; 125 g ai/ha) | Plant response rating, Pigweed ([10]; 500 g ai/ha) | Plant response rating, Crabgrass, Large ([11]; 125 g ai/ha) | Plant response rating, Crabgrass, Large ([11]; 500 g ai/ha) | Plant response rating, Wheat ([12]; 125 g ai/ha) | Plant response rating, Wheat ([12]; 500 g ai/ha) | Plant response rating, Corn (corn (Zea mays) [13]; 125 g ai/ha) | Plant response rating, Corn (corn (Zea mays) [13]; 500 g ai/ha) | other results
CC1(C)CC(S(=O)(=O)Cc2c(C(F)(F)F)nc3cnccn3c2=O)=NO1 [Compound 52] | 0 | 0 | 20 | 80 | 0 | 0 | 0 | 30 | 0 | 0 | 0 | 0 | 0 | 0 | 20 | 80 | 0 | 30 | 0 | 0 | Plant response rating, Barnyardgrass ([1]; 62 g ai/ha, scale 0 to 100): 0; Plant response rating, Barnyardgrass ([1]; 250 g ai/ha, scale 0 to 100 (0 no effect, 100 complete control)): 0; Plant response rating, Ducksalad ([4]; 62 g ai/ha): 0; Plant response rating, Ducksalad ([4]; 250 g ai/ha): 0; Plant response rating, Sedge, Umbrella ([7]; 62 g ai/ha): 0; Plant response rating, Sedge, Umbrella ([7]; 250 g ai/ha): 0; Plant response rating, Rice (rice (Oryza sativa); 62 g ai/ha): 0; Plant response rating, Rice (rice (Oryza sativa); 250 g ai/ha): 0; Plant response rating, Crabgrass, Large ([14]; 125 g ai/ha): 20; Plant response rating, Crabgrass, Large ([14]; 500 g ai/ha): 50; Plant response rating, Foxtail, Giant ([15]; 125 g ai/ha): 40; Plant response rating, Foxtail, Giant ([15]; 500 g ai/ha): 90; Plant response rating, Pigweed ([16]; 125 g ai/ha): 0; Plant response rating, Pigweed ([16]; 500 g ai/ha): 0; Plant response rating, Velvetleaf ([17]; 125 g ai/ha): 0; Plant response rating, Velvetleaf ([17]; 500 g ai/ha): 0; Plant response rating, Foxtail, Giant ([18]; 125 g ai/ha): 60; Plant response rating, Foxtail, Giant ([18]; 500 g ai/ha): 80; Plant response rating, Barnyardgrass ([19]; 125 g ai/ha): 30; Plant response rating, Barnyardgrass ([19]; 500 g ai/ha): 90
CC1(C)CC([S+]([O-])Cc2c(C(F)(F)Cl)nc3n(c2=O)CCCC3)=NO1 (centres unmarked) [Compound 32] | 0 | 0 | 20 | 70 | 0 | 0 | 40 | 50 | 0 | 0 | 0 | 10 | 0 | 0 | 50 | 80 | 0 | 0 | 0 | 0 | Plant response rating, Barnyardgrass ([1]; 31 g ai/ha, scale 0 to 100): 0; Plant response rating, Barnyardgrass ([1]; 125 g ai/ha, scale 0 to 100): 0; Plant response rating, Ducksalad ([4]; 31 g ai/ha): 0; Plant response rating, Ducksalad ([4]; 125 g ai/ha): 0; Plant response rating, Sedge, Umbrella ([7]; 31 g ai/ha): 0; Plant response rating, Sedge, Umbrella ([7]; 125 g ai/ha): 0; Plant response rating, Rice (rice (Oryza sativa); 31 g ai/ha): 0; Plant response rating, Rice (rice (Oryza sativa); 125 g ai/ha): 0; Plant response rating, Crabgrass, Large ([14]; 125 g ai/ha): 10; Plant response rating, Crabgrass, Large ([14]; 500 g ai/ha): 40; Plant response rating, Foxtail, Giant ([15]; 125 g ai/ha): 30; Plant response rating, Foxtail, Giant ([15]; 500 g ai/ha): 80; Plant response rating, Pigweed ([16]; 125 g ai/ha): 0; Plant response rating, Pigweed ([16]; 500 g ai/ha): 30; Plant response rating, Velvetleaf ([17]; 125 g ai/ha): 0; Plant response rating, Velvetleaf ([17]; 500 g ai/ha): 0; Plant response rating, Foxtail, Giant ([18]; 125 g ai/ha): 0; Plant response rating, Foxtail, Giant ([18]; 500 g ai/ha): 50; Plant response rating, Barnyardgrass ([19]; 125 g ai/ha): 10; Plant response rating, Barnyardgrass ([19]; 500 g ai/ha): 40
